Marks after values point to notes of the source that are not given here.
How the values were obtained:
[1] = test system: mutant SOD1-overexpressing fish; assay: mutant SOD1-induced motor axonopathy in zebrafish embryos (percentage affected embryos, motor axon length); type: in vivo; conditions: 30 hpf
Description: FIG. 1: EphA4 knockdown rescues mutant SOD1-induced motor axonopathy. […] Abnormal branching is indicated with arrowhead. Y-axes show motor axon length of zebrafish embryos expressing wild-type SOD1 (black bar, Panels D-G) or mutant SOD1 (white bar, Panels D-G). Knockdown of RTK2 in SOD1A4V- (Panel D), SOD1G93A- (Panel E) and SOD1G37R- (Panel F) expressing fish was established by co-injection of increasing amounts of atg-RTK2 morpholino (shaded bars). RTK1 expression was inhibited in SOD1A4V-expressing fish by co-injection of atg-RTK1 morpholino (shaded bars, Panel G). Ctr-RTK2 and ctr-RTK1 were used as control. ANOVA and Bonferroni's multiple comparison tests were used for statistical analysis. Comparing axonal length in SOD1A4V fish injected with ctr-RTK2 (n=39) vs. different doses atg-RTK2: 3 ng (n=43, p=0.0059), 4.5 ng (n=37, p=0.0016, Panel D), SOD1G93A: ctr-RTK2 (n=60) vs. atg-RTK2: 1.5 ng (n=55, p=0.015), 3 ng (n=51, p=2.82×10-9), 4.5 ng (n=46, p=2.22×10-15, Panel E), SOD1G37R: ctr-RTK2 (n=37) vs. atg-RTK2: 3 ng (n=25, p=0.027), 4.5 ng (n=36, p=0.0018, Panel F) and SOD1A4V: ctr-RTK1 (n=49) vs. atg-RTK1: 1.5 ng (n=51, p=2.51×10-7), 3 ng (n=64, p=7.99×10-10), 4.5 ng (n=54, p<1×10-20, Panel G). Western blot of SOD1WT or SOD1A4V (1.76 ng) expressing zebrafish embryos (30 hpf), co-injected with either ctr-RTK1 or atg-RTK1 (4.5 ng). Sixty embryos were used per group with actin as the loading control (H). Immunostaining of rtk1 (green) in rhombomeres 3 and 5 and of ephrin-b2 (magenta) in rhombomere 4 in zebrafish embryos injected with either ctr-RTK1 or atg-RTK1 (4.5 ng). RTK1-depleted embryos show disorganized rhombomere boundaries (arrowhead, I, Scale bar 50 μm). Error bars are s.e.m.
FIG. 2: RTK2 knockdown protects motor axons against SOD1^A4V-induced injury. Effect of RTK2 knockdown, established by injection of splice-rtk2 morpholino, on the motor axon length of SOD1^A4V-expressing zebrafish embryos (30 hpf). SOD1^WT-expressing fish and a non-functional five-base pair-mismatch control morpholino (ctr-RTK2) were used as control (Panel A). ANOVA and Bonferroni's multiple comparison tests were used for statistical analysis: SOD1^A4V/ctr-RTK2 (n=56) vs. SOD1^A4V/spl-RTK2 (n=60, 1.79×10^−4). Spl-RTK2 was designed against the exon 2 splice site of the zebrafish RTK2 pre-mRNA and alternatively skipped out exon 2. RT-PCR on non-transgenic fish (lane 1), ctr-RTK2-injected fish (lane 2) and spl-RTK2-injected fish (lane 3) at 30 hpf. Functional RTK2 mRNA, containing exon 2, is indicated by the 818-bp product (upper band) while non-functional RTK2 mRNA, lacking exon 2 is indicated by the 156-bp product (lower band), 60 embryos each group (Panel B). Error bars are s.e.m.
FIG. 12: Pharmacological inhibition of EphA4 receptor signaling protects against mutant SOD1 pathology in vivo. Effect of treatment with Compound 1 (C1, 500 μM) on the motor axon length of zebrafish embryos (30 hpf). DMSO (1/250 dilution) was used as control (Panel A). ANOVA and Bonferroni's multiple comparison tests were used for statistical analysis: SOD1^A4V/C1 (n=68) vs. SOD1^A4V/DMSO (n=76, p=3.54×10^−5). Effect of KYL-peptide (3 mM) treatment of 60-day-old SOD1^G93A rats on disease onset (Panel B) and survival (Panel C). Artificial CSF (ACSF) was used as control. Average disease onset: 133 days (treated, n=21) versus 125 days (control, n=17, T-test p=0.044). Average survival: 148 days (treated, n=21) versus 139 days (controls, n=17, T-test p=0.041). Error bars are s.e.m.
Effect of RTK2 knockdown (established by injection of atg-RTK2 morpholino) on the percentage of affected wild-type SOD1 or mutant SOD1 (A4V, G93A, G37R) zebrafish embryos (30 hpf). Ctr-RTK2 morpholino was used as control. An embryo was considered as affected when it had more than 10% abnormally branched motor axons. Significance of mtSOD1/ctr-RTK2 (4.5 ng) vs. mtSOD1/atg-RTK2 (4.5 ng) was determined by Mann-Whitney test, * p=0.0075, ° p=0.039 and # p=0.0052. […]

[2] = test system: non-transgenic or wild-type SOD1-expressing fish; assay: axonal and total body length in non-transgenic or wild-type SOD1-expressing fish; type: in vivo; conditions: zebrafish, average ± s.e.m.
Procedure: Y-axes show motor axon length of non-transgenic (black bar) or SOD1WT-expressing (white bar) zebrafish embryos, injected with either atg-RTK2 (shaded bars, Panel A) or atg-RTK1 morpholino (shaded bars, Panel B). Ctr-RTK2 and ctr-RTK1 were used as controls. Error bars are s.e.m.
To identify disease-modifying genes in ALS in an unbiased way, knockdown screening was performed in the mutant SOD1 zebrafish model (reference 13), using a library of 303 translation blocking morpholinos (atg-mo), of which 58 were targeting genes presumed to be neuronally expressed (according to the NCBI database) and 245 randomly chosen targeting genes. […] The morpholino yielding the highest rescue in two separate experiments was studied further. It targets zebrafish receptor tyrosine kinase 2 (RTK2, also known as epha4b), which has 67% identity and 80% homology to the human orthologue EPHA4. Knockdown of RTK2 in fish expressing mutant SOD1 completely and dose-dependently rescued the motor axonopathy (both axonal length and aberrant branching) caused by three different SOD1 mutations: A4V, G93A and G37R (FIG. 1, Panels A-F; Table 2). […] Receptor tyrosine kinase 1 (RTK1, also known as epha4a), the fish paralogue of RTK2, has 83% identity and 92% homology to human EPHA4. RTK1 knockdown was dose-dependently and equally protective as RTK2 knockdown (FIG. 1, Panel G; Table 4). […]

[3] = molecular target: EphA4 (Homo sapiens, UniProt P54764); conditions: Noberini et al.; cited from earlier work
Sequence of EphA4 (P54764 20-986, species assumed): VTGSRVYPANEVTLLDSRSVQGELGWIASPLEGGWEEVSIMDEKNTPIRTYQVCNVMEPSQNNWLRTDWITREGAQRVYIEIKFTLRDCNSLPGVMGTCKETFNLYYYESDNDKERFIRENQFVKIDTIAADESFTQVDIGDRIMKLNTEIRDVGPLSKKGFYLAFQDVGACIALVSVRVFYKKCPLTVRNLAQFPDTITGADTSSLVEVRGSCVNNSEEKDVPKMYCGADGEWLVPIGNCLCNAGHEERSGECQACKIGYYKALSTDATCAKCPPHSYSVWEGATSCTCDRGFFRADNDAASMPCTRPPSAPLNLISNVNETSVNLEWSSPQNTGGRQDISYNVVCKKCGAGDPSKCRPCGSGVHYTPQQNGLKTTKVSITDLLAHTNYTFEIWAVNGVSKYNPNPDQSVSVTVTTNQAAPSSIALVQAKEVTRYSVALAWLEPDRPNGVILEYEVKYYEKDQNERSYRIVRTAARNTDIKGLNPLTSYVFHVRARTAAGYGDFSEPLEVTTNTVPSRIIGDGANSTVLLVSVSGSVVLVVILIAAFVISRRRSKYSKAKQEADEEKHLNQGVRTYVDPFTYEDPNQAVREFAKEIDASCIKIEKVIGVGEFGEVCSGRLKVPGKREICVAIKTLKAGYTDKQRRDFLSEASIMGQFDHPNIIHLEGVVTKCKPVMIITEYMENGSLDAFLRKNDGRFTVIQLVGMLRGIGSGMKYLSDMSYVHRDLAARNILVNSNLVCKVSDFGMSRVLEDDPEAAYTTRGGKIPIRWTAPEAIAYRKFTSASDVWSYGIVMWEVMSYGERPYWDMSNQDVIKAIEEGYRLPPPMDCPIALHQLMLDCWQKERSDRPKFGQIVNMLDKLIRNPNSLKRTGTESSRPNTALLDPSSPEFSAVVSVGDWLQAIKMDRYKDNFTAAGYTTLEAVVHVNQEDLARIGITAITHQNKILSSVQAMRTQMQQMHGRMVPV

Compound	% affected embryos (more than 10% abnormally branched motor axons) ([1]; mtSOD1 A4V zebrafish embryos, morpholino 1.5 ng)	% affected embryos (more than 10% abnormally branched motor axons) ([1]; mtSOD1 A4V zebrafish embryos, morpholino 3.0 ng)	% affected embryos (more than 10% abnormally branched motor axons) ([1]; mtSOD1 A4V zebrafish embryos, morpholino 4.5 ng)	% affected embryos (more than 10% abnormally branched motor axons) ([1]; mtSOD1 G37R zebrafish embryos, morpholino 1.5 ng)	% affected embryos (more than 10% abnormally branched motor axons) ([1]; mtSOD1 G37R zebrafish embryos, morpholino 3.0 ng)	% affected embryos (more than 10% abnormally branched motor axons) ([1]; mtSOD1 G37R zebrafish embryos, morpholino 4.5 ng)	% affected embryos (more than 10% abnormally branched motor axons) ([1]; mtSOD1 G93A zebrafish embryos, morpholino 1.5 ng)	% affected embryos (more than 10% abnormally branched motor axons) ([1]; mtSOD1 G93A zebrafish embryos, morpholino 3.0 ng)	% affected embryos (more than 10% abnormally branched motor axons) ([1]; mtSOD1 G93A zebrafish embryos, morpholino 4.5 ng)	% affected embryos (more than 10% abnormally branched motor axons) ([1]; wtSOD1 zebrafish embryos, morpholino 4.5 ng)	body length [2]	inhibition of ephrin binding to EphA4 [3]
5′-AATCCAAAGGGTAGCCA-TTTTCAGG-′3 (antisense AATCCAAAGGGTAGCCATTTTCAGG; morpholino, chemistry not fully specified) [atg-RTK2]	29 (41) %	18 (44) %	8* %	34 (26) %	8 (25) %	16# %	55 (47) %	50 (54) %	23° %	12%	2.70±0.01 mm	
Cc1ccc(C)n1-c1ccc(O)c(C(=O)O)c1 [compound 2]												selectively inhibit ephrin binding to EphA4

— patent US9187784B2, “EphA4 is a disease modifier in motor neuron disease” (VIB VZW, priority 2011, dated 2015)
